Measurements reported in patent publication US20210139497A1, “THIENOCYCLIC COMPOUND AND SYNTHESIS METHOD THEREFOR AND APPLICATION THEREOF” (SHANGHAI YUYAO BIOTECH LTD., priority 2017, published 2021).

What was measured:
breast cancer cells 4T1 = experiment: 4T1 subcutaneous tumor-bearing model, Balb/c mice; assay type: in vivo, mouse; conditions: female Balb/c mice, 75 mg/kg/day, 12-22 days, FIG. 4
Description: (§1) Mouse colon cancer cells MC38, pancreatic cancer cells Pan02, breast cancer cells 4T1, prostate cancer cells RM-1 and colon cancer cells CT26 were cultivated to required amount. Then, cells at a cell density of 5×10^5-2×10^6 were subcutaneously injected into right side of the back of selected female C57BL/6 mice aging 6-8 weeks (MC38, Pan02), male C57BL/6 mice aging 6-8 weeks (RM-1), female Balb/c mice aging 6-8 weeks (4T1, CT26) and female Balb/c nude mice aging 6-8 weeks (CT26). The length and width of subcutaneous tumors in the backs of mice were measured using vernier calipers, and tumor volume(mm^3)=(length(mm)×width(mm)×width(mm)×n)/6 was calculated. […] The volume of subcutaneous tumors on the back of mice was measured and counted 2-4 times a week. Continuous administrated for 12-22 days and the changes of tumor volumes were recorded.

colon cancer cells CT26 = experiment: CT26 subcutaneous tumor-bearing model, Balb/c nude mice; assay type: in vivo, mouse; conditions: female Balb/c nude mice, 75 mg/kg/day
Description: as §1

[1] = system: mouse colon cancer cells MC38; experiment: MC38 subcutaneous tumor-bearing model, C57BL/6 mice; assay type: in vivo; conditions: female C57BL/6 mice, 75 mg/kg/day, 12-22 days, FIG. 4
Description: as §1

[2] = system: pancreatic cancer cells Pan02; experiment: Pan02 subcutaneous tumor-bearing model, C57BL/6 mice; assay type: in vivo, mouse; conditions: female C57BL/6 mice, 75 mg/kg/day, 12-22 days, FIG. 4
Description: as §1

[3] = Cytotoxicity evaluation (CCK8), CT26; conditions: mouse, CT26 intestinal cancer cells
Experimental: (§4) Cells with a density of 2000-8000 cells per 100 μL medium were seeded in 96-well plates (Falcon, CA) and incubated for 24 hours, then treated with drugs having different concentration gradient (at least 4 replicates per concentration) and incubated at 37° C. in 5% CO2 incubator for 72 hours. Then cell viability was detected by CCK8 method. That is to say, add 10 μL CCK8 to each well and incubate for 0.33-2 h, and the OD values are read by microplate reader at 450 nm. The inhibition rate on cell survival of compounds with each concentration were calculated.
(§5) Inhibition rate on cell survival=(OD value of groups with each concentration/OD
(§6) value of control group)×100%±standard deviation.
(§7) The IC50 of drugs were calculated using GraphPad Prism 5.0.

[4] = Cytotoxicity evaluation (CCK8), MOSJ; conditions: mouse, MOSJ osteosarcoma cells
Experimental: as §4, §5, §6, §7

[5] = Cytotoxicity evaluation (CCK8), 293; conditions: human
[6] = biological target: T1, human prostaglandin E2 receptor EP2 subtype (Homo sapiens, UniProt P43116); experiment: Calcium flux of human prostaglandin E2 receptor EP2 subtype; assay type: cell-based; conditions: CHO-K1-Gα16 cells overexpressing human EP2, activated by prostaglandin E2; read-out: hEP2 Ca^2+ IC50
T1 construct: expressed in transfected cells; host or cells: CHO-K1-Gα16
T1 sequence (P43116 whole entry): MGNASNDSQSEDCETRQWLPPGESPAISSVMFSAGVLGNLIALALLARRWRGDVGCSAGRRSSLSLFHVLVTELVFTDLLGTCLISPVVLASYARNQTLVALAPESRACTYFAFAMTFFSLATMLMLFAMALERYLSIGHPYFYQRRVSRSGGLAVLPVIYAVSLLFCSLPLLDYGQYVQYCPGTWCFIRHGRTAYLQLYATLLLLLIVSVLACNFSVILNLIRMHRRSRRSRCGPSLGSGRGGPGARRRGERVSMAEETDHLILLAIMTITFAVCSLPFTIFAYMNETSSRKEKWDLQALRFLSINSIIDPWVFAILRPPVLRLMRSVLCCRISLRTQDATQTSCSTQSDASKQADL
Experimental: (§2) CHO-K1-Gα16 cells at the logarithmic growth phase were transfected with human prostaglandin E2 Receptor subtypes EP1, EP2 or EP3 overexpressing vector by Lipofectamine 2000, then seeded in a 96-well plate (Falcon, CA) at a density of 20000 cells per 100 μL culture medium for overnight culture. On the second day, every single well were added with 100 μL calcium 5 detection reagents (Molecular Devices) and incubated in incubator at 37° C., 5% CO2 for 45 minutes. The compounds were diluted with HBSS detection buffer, then were added to 96-well plates. After 20 min incubation at room temperature in the dark, prostaglandin E2 at certain concentration was used to activate calcium flux of cells for detection (Flexstation 3, MD, CA).
(§3) Calculate the IC50 of the compounds of the invention in inhibiting the calcium flux of human EP1, EP2, and EP3 receptor (i.e. the concentration of drugs at which the intracellular Ca^2+ flux being inhibited by half after overexpressing human EP1, EP2, and EP3 receptors in CHO-K1-Gα16 cells). The IC50 of the drugs were calculated using GraphPad Prism 5.

[7] = biological target: T2, human prostaglandin E2 receptor EP1 subtype (Homo sapiens, UniProt P34995); experiment: Calcium flux of human prostaglandin E2 receptor EP1 subtype; assay type: cell-based; conditions: CHO-K1-Gα16 cells overexpressing human EP1, activated by prostaglandin E2; read-out: hEP1 Ca^2+ IC50
T2 construct: expressed in transfected cells; host or cells: CHO-K1-Gα16
T2 sequence (P34995 1-402): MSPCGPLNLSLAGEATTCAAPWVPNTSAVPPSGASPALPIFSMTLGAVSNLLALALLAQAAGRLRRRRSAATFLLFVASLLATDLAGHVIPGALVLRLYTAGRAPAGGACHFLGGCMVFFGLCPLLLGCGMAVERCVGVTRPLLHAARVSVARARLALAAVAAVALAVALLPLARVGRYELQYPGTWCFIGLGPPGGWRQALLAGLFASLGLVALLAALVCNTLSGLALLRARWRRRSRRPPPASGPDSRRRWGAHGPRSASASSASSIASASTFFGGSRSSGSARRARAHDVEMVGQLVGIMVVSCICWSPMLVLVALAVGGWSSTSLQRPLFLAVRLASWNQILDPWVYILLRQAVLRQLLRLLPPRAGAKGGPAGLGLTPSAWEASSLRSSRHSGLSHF
Experimental: as §2, §3

[8] = Cytotoxicity evaluation (CCK8), EMT-6; conditions: mouse, EMT-6 breast cancer cells
Experimental: as §4, §5, §6, §7

[9] = system: mouse colon cancer cells CT26; experiment: CT26 subcutaneous tumor-bearing model, Balb/c mice; assay type: in vivo; conditions: female Balb/c mice, 75 mg/kg/day
Experimental: 2×10^6 mouse colon cancer cells CT26 were subcutaneously injected into right side of each mouse's back (female Balb/c mouse, 6-8 weeks). The length and width of subcutaneous tumors in the back of mice were measured using vernier calipers, and tumor volume (mm^3)=(length(mm)×width(mm)×width(mm)×n)/6 was calculated. […] The volume of subcutaneous tumors on the back of mice was measured and counted twice a week. Continuous administrated for a period of 14 days and the changes of tumor volumes were recorded.
as §1

[10] = Cytotoxicity evaluation (CCK8), PANC02; conditions: mouse, PANC02 pancreatic cancer cells
Experimental: as §4, §5, §6, §7

[11] = system: prostate cancer cells RM-1; experiment: RM-1 subcutaneous tumor-bearing model, C57BL/6 mice; assay type: in vivo, mouse; conditions: male C57BL/6 mice, 75 mg/kg/day, 12-22 days, FIG. 4
Description: as §1

[12] = biological target: T3, human prostaglandin E2 receptor EP3 subtype (Homo sapiens, UniProt P43115); experiment: Calcium flux of human prostaglandin E2 receptor EP3 subtype; assay type: cell-based; conditions: CHO-K1-Gα16 cells overexpressing human EP3, activated by prostaglandin E2; read-out: hEP3 Ca^2+ IC50
T3 construct: expressed in transfected cells; host or cells: CHO-K1-Gα16
T3 sequence (P43115 1-390): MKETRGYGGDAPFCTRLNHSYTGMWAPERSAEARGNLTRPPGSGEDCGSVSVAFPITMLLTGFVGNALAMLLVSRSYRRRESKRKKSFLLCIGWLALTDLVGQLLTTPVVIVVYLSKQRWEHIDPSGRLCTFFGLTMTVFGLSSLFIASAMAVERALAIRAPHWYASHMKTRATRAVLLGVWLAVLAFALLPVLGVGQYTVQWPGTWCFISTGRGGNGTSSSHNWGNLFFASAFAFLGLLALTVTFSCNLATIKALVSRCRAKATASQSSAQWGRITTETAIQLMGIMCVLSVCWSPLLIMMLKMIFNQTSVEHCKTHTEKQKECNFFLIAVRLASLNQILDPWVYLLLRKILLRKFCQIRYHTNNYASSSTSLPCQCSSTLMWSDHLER
Experimental: as §2, §3

[13] = Cytotoxicity evaluation (CCK8), LLC; conditions: mouse, LLC lung cancer cells
Experimental: as §4, §5, §6, §7

C[C@H](NC(=O)c1c(Cc2ccc(F)cc2)sc2c1CCOC2)c1ccc(C(=O)O)cc1 [YJ114, (S)-4-(1-(2-(4-fluorobenzyl)-5,7-dihydro-4H-thieno[2,3-c]pyran-3-carboxamido)ethyl)benzoic Acid]
Inhibition of growth of breast cancer cells 4T1 in subcutaneous tumor-bearing mice (breast cancer cells 4T1): can efficiently inhibit the growth
Inhibition of CT26 tumor growth in Balb/c nude mice with immune system deficiency (colon cancer cells CT26): can not inhibit the tumor growth
Inhibition of growth of colon cancer cells MC38 in subcutaneous tumor-bearing mice [1]: can efficiently inhibit the growth
Inhibition of growth of pancreatic cancer cells Pan02 in subcutaneous tumor-bearing mice [2]: can efficiently inhibit the growth
IC50 at 72 h [3]: > 100 µM
IC50 at 72 h [4]: > 100 µM
IC50 at 72 h [5]: > 100 µM
IC50 [6]: > 10 µM
IC50 [7]: > 10 µM
IC50 at 72 h [8]: > 100 µM
Inhibition of growth of colon cancer cells CT26 in subcutaneous tumor-bearing mice ([9]; 12 to 22-day administration (Example 6)): can efficiently inhibit the growth
Inhibitory effect on growth of subcutaneous CT26 colon cancer ([9]; 14 days, vs negative control, FIG. 3): able to suppress the growth
IC50 at 72 h [10]: > 100 µM
Inhibition of growth of prostate cancer cells RM-1 in subcutaneous tumor-bearing mice [11]: can efficiently inhibit the growth
IC50 [12]: > 10 µM
IC50 at 72 h [13]: > 100 µM
